From PubChem BioAssay (NCI)
Several values for one entry are separate records, joined by “and”; a condition that tells them apart may be missing. Identical values can stand only once.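 A five-concentration, 48-hour dose response in 96-well plates underlies each endpoint, interpolated linearly between surrounding concentrations. Here, GI50 denotes the concentration required for 50% inhibition of growth. TGI is the concentration that stops growth completely.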

Assays:
Test in all cases: NCI anticancer screen, dose series, 48 h
HOP-92 NSCLC = tested on: HOP-92 NSCLC
NCI-H522 lung = tested on: NCI-H522 lung
SR leukemia = tested on: SR leukemia
UACC-257 melanoma = tested on: UACC-257 melanoma
SW-620 colon = tested on: SW-620 colon
ACHN renal = tested on: ACHN renal
SF-268 CNS = tested on: SF-268 CNS
K-562 leukemia = tested on: K-562 leukemia
HCT-15 colon = tested on: HCT-15 colon
HCC-2998 colon = tested on: HCC-2998 colon

Compound | GI50 (HOP-92 NSCLC) | TGI (HOP-92 NSCLC) | GI50 (NCI-H522 lung) | TGI (NCI-H522 lung) | GI50 (SR leukemia) | TGI (SR leukemia) | GI50 (UACC-257 melanoma) | TGI (UACC-257 melanoma) | GI50 (SW-620 colon) | TGI (SW-620 colon) | GI50 (ACHN renal) | TGI (ACHN renal) | GI50 (SF-268 CNS) | TGI (SF-268 CNS) | GI50 (K-562 leukemia) | TGI (K-562 leukemia) | GI50 (HCT-15 colon) | TGI (HCT-15 colon) | TGI (HCC-2998 colon) | GI50 (HCC-2998 colon)
O=c1[nH]ccc2nc(N3CCC(O)CC3)nc(Nc3ccc(N4CCOCC4)cc3)c12 | 0.566 µM | 5.02 µM | > 100 µM | > 100 µM | 3.14 µM | > 100 µM | > 100 µM | > 100 µM | 1.75 µM | > 100 µM | 0.797 µM | > 100 µM | 5.94 µM | > 100 µM | > 100 µM | > 100 µM | 1.24 µM | > 100 µM | > 81.2 µM | –
COc1ccc(-c2cc(=O)c3c(OC)c(O)c(OC)cc3o2)cc1 | – | 89.6 µM | – | > 100 µM | – | > 100 µM | – | > 100 µM | – | > 100 µM | – | > 100 µM | – | > 100 µM | – | > 100 µM | – | > 100 µM | > 100 µM | –
O=C(/C=C/c1ccccc1)Nc1ncc(Cc2ccccc2)s1 | 4.72 µM | > 84.8 µM | 0.112 µM | 3.83 µM | 0.0501 µM | 10.2 µM | 10.7 µM | > 100 µM | 0.144 µM | > 100 µM | 0.4 µM | 31.4 µM | 0.963 µM | > 100 µM | 0.0624 µM | > 37.1 µM | 0.066 µM | > 100 µM | 3.42 µM | 0.303 µM
O=c1ncc(I)c[nH]1 | > 100 µM | > 100 µM | > 100 µM | > 100 µM | > 100 µM | > 100 µM | > 100 µM | > 100 µM | > 100 µM | > 100 µM | > 100 µM | > 100 µM | > 100 µM | > 100 µM | > 100 µM | > 100 µM | > 100 µM | > 100 µM | > 100 µM | > 100 µM
COc1ccc(-c2c(-c3cc4c(c(OC)c3OC)OCO4)noc2N)cc1 | 0.679 µM | 46.3 µM | 0.081 µM | 0.432 µM | 0.0376 µM | 69.8 µM | 0.458 µM | > 100 µM | 0.235 µM | > 100 µM | 1.43 µM | > 100 µM | 0.745 µM | > 95.8 µM | 0.0688 µM | > 100 µM | 0.391 µM | > 100 µM | 6.96 µM | 0.575 µM
COc1ccc2c3c(ccc2c1)NC(C(=O)O)CC3 (configuration not stated) | – | > 100 µM | – | > 100 µM | – | 58.4 µM | – | > 100 µM | – | > 100 µM | – | > 100 µM | – | > 100 µM | – | > 100 µM | – | > 100 µM | > 100 µM | –
C/C(=N\NC(=O)c1cccc(S(=O)(=O)N2CCN(C)CC2)c1)c1cc(Cl)ccc1O | 4.85 µM | > 90.1 µM | 1.26 µM | > 72.7 µM | 0.383 µM | > 52.9 µM | 2.37 µM | 25.8 µM | 0.705 µM | > 94.9 µM | 0.46 µM | > 100 µM | 0.933 µM | > 63.8 µM | 0.824 µM | > 52.8 µM | 0.27 µM | > 43.6 µM | 28.7 µM | 0.571 µM
CC(C)COC(=O)N1N=NC2C3CC(=O)C(O3)C21 (configuration not stated) | – | > 100 µM | – | > 100 µM | – | > 100 µM | – | > 100 µM | – | > 100 µM | – | > 100 µM | – | > 100 µM | – | > 100 µM | – | > 100 µM | > 100 µM | –
CS(=O)(=O)OCCCCOS(C)(=O)=O | 570 µM | 250 µM and > 948 µM | 466 µM | 250 µM and > 1000 µM | 100 µM | 223 µM and > 1000 µM | 571 µM | 230 µM and > 1000 µM | > 1000 µM | 250 µM and > 1000 µM | 354 µM | 250 µM and > 1000 µM | 424 µM | 223 µM and > 1000 µM | 795 µM | 223 µM and > 1000 µM | > 903 µM | 236 µM and > 1000 µM | 201 µM and > 1000 µM | > 1000 µM
COc1ccc2nc(-c3ccc(Cl)cc3)cc(-c3nnc(SCC(=O)Nc4ccc(/C(C)=N\O)cc4)o3)c2c1 | 1.77 µM | 5.26 µM | 1.2 µM | 3.83 µM | 1.72 µM | > 50 µM | 2.16 µM | 9.51 µM | 1.15 µM | 2.54 µM | 1.85 µM | 8.04 µM | 1.44 µM | 5.06 µM | 2.83 µM | > 50 µM | 1.88 µM | 16.4 µM | 31.5 µM | 2.98 µM
CC(C)C[C@H](NC(=O)[C@H](Cc1ccccc1)NC(=O)c1cnccn1)B(O)O | 0.0015 µM | 0.0196 µM and 0.00723 µM | 0.00143 µM | < 0.215 µM and 0.00414 µM | 0.00219 µM | – | 0.00107 µM | 0.00349 µM | 0.00121 µM | – | 0.00181 µM | – | 0.00288 µM | – | 0.00398 µM | > 100 µM | 0.00237 µM | – | – | 0.000597 µM
COc1ccc2c(c1)[n+]([O-])c(/C(C)=N/NC(N)=S)c(C)[n+]2[O-] | – | > 100 µM | – | > 100 µM | – | 61.5 µM | – | > 100 µM | – | > 100 µM | – | > 100 µM | – | > 100 µM | – | > 100 µM | – | > 100 µM | > 66.7 µM | –
Nc1c(C(=O)c2cccc(C(O)(CO)CO)c2)cnn1-c1ccc(F)cc1 | > 25 µM | > 25 µM | > 25 µM | > 25 µM | > 25 µM | > 25 µM | > 25 µM | > 25 µM | > 25 µM | > 25 µM | > 25 µM | > 25 µM | > 25 µM | > 25 µM | > 25 µM | > 25 µM | > 25 µM | > 25 µM | > 25 µM | > 25 µM
O=C1c2cccc3c([N+](=O)[O-])ccc(c23)C(=O)N1CCCCl | > 10 µM | > 10 µM | 4.34 µM | > 10 µM | 0.334 µM | > 10 µM | 7.14 µM | > 10 µM | 2.08 µM | 5.95 µM | > 10 µM | > 10 µM | 3.17 µM | > 10 µM | 3.04 µM | > 10 µM | 5.01 µM | > 10 µM | > 10 µM | 5.85 µM
OCCNC(=S)Nc1ccc(-c2nc(N3C[C@H]4CC[C@@H](C3)O4)c3cccn3n2)cc1 | < 0.0133 µM | 0.161 µM | 0.029 µM | 3.37 µM | 0.082 µM | > 38 µM | 0.0354 µM | 0.467 µM | 0.203 µM | 13.8 µM | 0.0502 µM | 1.86 µM | 0.079 µM | 25.8 µM | 0.266 µM | > 37.6 µM | 0.0906 µM | 14.4 µM | 18.6 µM | 0.0779 µM
COc1ccc(C2CC(c3ccc4ccccc4c3)=NN2/C=C2\SC(=S)N(NC(=O)Cc3ccccc3Nc3c(Cl)cccc3Cl)C2=O)cc1 (configuration not stated) | 1.27 µM | > 53.4 µM | 0.372 µM | 4.76 µM | 0.309 µM | > 100 µM | 3.86 µM | > 100 µM | 0.416 µM | > 52.7 µM | 0.684 µM | > 71.5 µM | 0.809 µM | > 48.8 µM | 0.402 µM | > 100 µM | 0.467 µM | > 65.1 µM | > 33.3 µM | 1.39 µM
CS(=O)(=O)c1nccc(-c2c(-c3cccc(OCc4ccccc4)c3)nc3sccn23)n1 | 6.38 µM | > 100 µM | 9.12 µM | > 100 µM | 4.49 µM | > 100 µM | 10.4 µM | 32.5 µM | 4.67 µM | > 100 µM | 36.4 µM | > 100 µM | 19.1 µM | > 100 µM | 5.29 µM | > 100 µM | 12 µM | > 100 µM | 8.36 µM | 3.49 µM
COc1ccc(C(=O)OC2C(OC3C(O)COC(O[C@H]4C[C@H]5[C@@H]6CC=C7C[C@@H](O)CC[C@]7(C)[C@H]6CC[C@]5(C)[C@H]4[C@H](C)C(=O)CCC(C)C)C3OC(=O)C(C)C)OCC(O)C2O)cc1 (some centres not stated) | 0.0208 µM | 3.1 µM | 0.0306 µM | 0.273 µM | 0.0121 µM | 3.34 µM | 0.0342 µM | 0.114 µM | 0.0125 µM | 0.389 µM | 0.111 µM | 4.82 µM | 0.0195 µM | 3.33 µM | 0.0127 µM | 0.516 µM | 0.218 µM | 3.92 µM | 5.79 µM | 1.88 µM
NNC(=O)C(O)C(O)C(O)CO (configuration not stated) | – | > 100 µM | – | > 100 µM | – | > 100 µM | – | > 100 µM | – | > 100 µM | – | > 100 µM | – | > 100 µM | – | > 100 µM | – | > 100 µM | > 100 µM | –
C/C(=N\N)C(CN1CCCCC1)C(c1ccccc1)c1c(O)c2ccccc2oc1=O (configuration not stated) | – | > 100 µM | – | > 100 µM | – | > 100 µM | – | > 100 µM | – | > 100 µM | – | > 100 µM | – | > 100 µM | – | > 100 µM | – | > 100 µM | > 100 µM | –
C=C(c1ccccc1)[C@@]1(O)CCCC[C@H]1NC(c1ccccc1)c1ccccc1 | – | 26.1 µM | – | 21.6 µM | – | 6.98 µM | – | 25.1 µM | – | 32.8 µM | – | 23.9 µM | – | 27.6 µM | – | 29.1 µM | – | 24.5 µM | 26.1 µM | –
COc1cccc(-c2cc(C(=O)Nc3ccc(Cl)cc3)nc(N)n2)c1 | – | > 100 µM | – | > 100 µM | – | > 100 µM | – | > 100 µM | – | > 100 µM | – | > 100 µM | – | > 100 µM | – | > 100 µM | – | > 100 µM | > 100 µM | –
CC/C=C\C[C@H](O)C/C=C1/C(=O)C=C[C@@H]1C/C=C\CCCC(=O)OCCS(=O)(=O)c1ccccc1 | 6.87 µM | 19.4 µM | 1.76 µM | 4.13 µM | 2.87 µM | 13.2 µM | 4.54 µM | 17.3 µM | 4.07 µM | 14.9 µM | 3.17 µM | 10.3 µM | 4.37 µM | 22.9 µM | 3.04 µM | 63.8 µM | 2.84 µM | 11.4 µM | 3.64 µM | 1.99 µM
C=C(C)[C@@H]1CC[C@]2(C(=O)N3CCN(C)CC3)CC[C@]3(C)[C@H](CC[C@@H]4[C@@]5(C)C/C(=C/c6ccncc6)[C@H](O)C(C)(C)[C@@H]5CC[C@]43C)[C@@H]12 | 2.88 µM | 19.2 µM | 5.24 µM | 25 µM | 2.72 µM | 10.2 µM | 5.45 µM | 27.8 µM | 3.75 µM | 17.7 µM | 6.6 µM | > 100 µM | 9.05 µM | 57.6 µM | 2.79 µM | – | 2.65 µM | 12.2 µM | 13.1 µM | 3.36 µM
